Reference: the Kinase Knowledgebase extract (Sharma et al. 2016)

Target: PIK3CA (human) (UniProt P42336)
Test: Assessment of PIK3CA Kinase Activity

Chain of PIK3CA (human) (P42336 whole entry, looked up): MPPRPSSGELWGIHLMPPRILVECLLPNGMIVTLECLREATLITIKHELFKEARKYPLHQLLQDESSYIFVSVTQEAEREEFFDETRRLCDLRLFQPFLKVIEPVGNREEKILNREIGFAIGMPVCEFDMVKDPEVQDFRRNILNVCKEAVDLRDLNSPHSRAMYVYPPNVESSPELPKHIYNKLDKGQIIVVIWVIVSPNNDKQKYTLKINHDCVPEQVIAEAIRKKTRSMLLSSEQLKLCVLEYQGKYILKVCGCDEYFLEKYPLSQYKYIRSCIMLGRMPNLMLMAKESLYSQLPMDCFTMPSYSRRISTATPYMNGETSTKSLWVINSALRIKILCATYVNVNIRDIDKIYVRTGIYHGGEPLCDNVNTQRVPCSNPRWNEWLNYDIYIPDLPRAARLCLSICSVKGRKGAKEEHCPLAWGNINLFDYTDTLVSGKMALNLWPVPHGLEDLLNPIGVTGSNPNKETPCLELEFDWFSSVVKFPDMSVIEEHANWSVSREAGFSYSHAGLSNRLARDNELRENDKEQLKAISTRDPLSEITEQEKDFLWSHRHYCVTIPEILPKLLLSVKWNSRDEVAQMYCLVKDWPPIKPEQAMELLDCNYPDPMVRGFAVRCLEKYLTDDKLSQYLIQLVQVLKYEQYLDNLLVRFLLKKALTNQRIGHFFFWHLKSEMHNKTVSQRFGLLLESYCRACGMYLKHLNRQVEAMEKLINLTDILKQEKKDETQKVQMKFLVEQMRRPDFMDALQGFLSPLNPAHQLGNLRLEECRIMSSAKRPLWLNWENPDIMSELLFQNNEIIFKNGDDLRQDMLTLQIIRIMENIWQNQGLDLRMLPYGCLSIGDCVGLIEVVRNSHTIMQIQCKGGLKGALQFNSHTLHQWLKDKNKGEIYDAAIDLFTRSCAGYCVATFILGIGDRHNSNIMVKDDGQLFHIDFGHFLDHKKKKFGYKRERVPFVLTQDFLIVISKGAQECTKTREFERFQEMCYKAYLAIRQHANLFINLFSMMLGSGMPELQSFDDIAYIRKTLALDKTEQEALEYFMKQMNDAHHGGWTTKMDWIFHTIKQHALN

IC50, < 1000 nM:
CC(C)n1ncnc1-c1nc2c(s1)CCOc1cc(CNc3ccon3)ccc1-2, C[C@@H]1CN(c2ccc3c(n2)-c2sc(-c4ncnn4-c4ccc(F)cc4F)cc2CCO3)C[C@H](C)N1CCF, CN(C(=O)c1cc2c(s1)-c1ccc(C(=O)NCCS(C)(=O)=O)cc1OCC2)c1cc(C(=O)NCCO)ccc1Cl, CC(C)n1ncnc1-c1nc2c(s1)CCOc1ccc(-c3ccn(C)c(=O)c3)cc1-2, Cc1nc(-c2nc3c(s2)CCOc2cc(-c4cnn(C5CN(CCO)C5)c4)ccc2-3)n(C(C)C)n1, C[C@@H]1CN(c2ccc3c(n2)-c2sc(-c4ncnn4-c4ccc(F)cc4F)cc2CCO3)C[C@H](C)N1CC(F)(F)F, CC(C)n1ncnc1-c1nc2c(s1)CCOc1cc(C3CN(CC(=O)N4CCOCC4)C3)ccc1-2, CC(C)(N)Cn1cc(-c2ccc3c(c2)OCCc2sc(-c4ncnn4CC(F)(F)F)nc2-3)cn1, OCC(O)CNc1ccc2c(n1)-c1sc(-c3ncnn3-c3ccc(F)cc3F)cc1CCO2 (stereo unspecified), CS(=O)(=O)c1cccc(-c2ccc3c(c2)OCCc2sc(-c4ncnn4CC(F)(F)F)nc2-3)c1, Fc1ccc(-n2ncnc2-c2cc3c(s2)-c2nc(NC4CCOCC4)ccc2OCC3)c(F)c1, CN1CCC(CNc2ccc3c(n2)-c2sc(-c4ncnn4-c4ccc(F)cc4F)cc2CCO3)C1 (stereo unspecified), Fc1ccc(-n2ncnc2-c2cc3c(s2)-c2nc(N4CCCNCC4)ccc2OCC3)c(F)c1, C[C@H]1COCCN1C(=O)c1nc2c(s1)CCOc1cc(-c3cn[nH]c3)ccc1-2, CC(C)n1ncnc1-c1nc2c(s1)CCOc1cc(-c3cn(CCO)cn3)ccc1-2, CC(=O)N1CC2CC1CN2c1ccc2c(n1)-c1sc(-c3ncnn3-c3ccc(F)cc3F)cc1CCO2 (stereo unspecified), C[C@@H]1CCCN1C(=O)c1nc2c(s1)CCOc1cc(-c3cn[nH]c3)ccc1-2, Cc1nc(-c2nc3c(s2)CCOc2cc(CNC(N)=O)ccc2-3)n(C(C)C)n1, C[C@@H]1CN(c2ccc3c(n2)-c2sc(-c4ncnn4-c4ccc(F)cc4F)cc2CCO3)C[C@H](C)N1C, CN(C)c1ccc(-c2ccc3c(n2)-c2sc(-c4ncnn4-c4ccc(F)cc4F)cc2CCO3)cn1, CC(C)n1ncnc1-c1nc2c(s1)CCOc1cc(C3CCN(CCS(=O)(=O)N(C)C)CC3)ccc1-2, CC(C)(O)CCc1ccc2c(n1)-c1sc(-c3ncnn3-c3ccc(F)cc3F)cc1CCO2, COCCn1ccc(-c2ccc3c(c2)-c2nc(-c4ncnn4C(C)C)sc2CCO3)cc1=O, Cc1nc(-c2nc3c(s2)CCOc2cc(C4CN(C(=O)[C@H](C)O)C4)ccc2-3)n(C(C)C)n1, CC(C)(C(=O)NCCO)n1cc(-c2ccc3c(c2)OCCc2sc(-c4ncnn4CC(F)(F)F)nc2-3)cn1, C[C@H](O)C(=O)N1CCN(c2ccc3c(n2)-c2sc(-c4ncnn4-c4ccc(F)cc4F)cc2CCO3)CC1, CNC(=O)c1ccc2c(c1)OCCc1cc(C(=O)N(C)c3cc(C(=O)N4CCNCC4)ccc3Cl)sc1-2, CC(C)Oc1cc(-c2ccc3c(c2)-c2nc(-c4ncnn4C(C)C)sc2CCO3)ccn1, Cc1ncccc1-c1ccc2c(c1)-c1nc(C(=O)N(CCO)C(C)C)sc1CCO2, CN(C[C@H]1Cc2ccccc2O1)C(=O)c1nc2c(s1)CCOc1cc(-c3cn[nH]c3)ccc1-2, CNC(=O)c1ccc2c(c1)OCCc1cc(C(=O)N(C)c3cc(C(=O)NC[C@H](C)O)ccc3Cl)sc1-2, Cc1nc(-c2nc3c(s2)CCOc2cc(C(C)NC(N)=O)ccc2-3)n(C(C)C)n1 (stereo unspecified), CN1CCN(CCNc2ccc3c(n2)-c2sc(-c4ncnn4-c4ccc(F)cc4F)cc2CCO3)CC1, CNC(=O)c1ccc2c(c1)OCCc1cc(C(=O)N(C)c3cc(C(=O)N4CC(F)(F)C4)ccc3Cl)sc1-2, C[C@@H]1CN(c2ccc3c(n2)-c2sc(-c4ncnn4-c4ccc(F)cc4F)cc2CCO3)C[C@H](C)N1CC(F)F, CC(C)n1ncnc1-c1nc2c(s1)CCOc1ccc(C3CCCC3)cc1-2, CC(C)n1ncnc1-c1nc2c(s1)CCOc1cc(CN3CCC[C@H]3C(N)=O)ccc1-2, CN1CC(Nc2ccc3c(n2)-c2sc(-c4ncnn4-c4ccc(F)cc4F)cc2CCO3)C1, CC(=O)N1CCCN(c2ccc3c(n2)-c2sc(-c4ncnn4-c4ccc(F)cc4F)cc2CCO3)CC1, CC(C)n1nc(CO)nc1-c1nc2c(s1)CCOc1ccccc1-2, CC(C)n1ncnc1-c1nc2c(s1)CCOc1cc(-c3cnn(C(C)(C)C(=O)NC4CN(C)C4)c3)ccc1-2, COc1ncccc1-c1ccc2c(n1)-c1sc(-c3ncnn3-c3ccc(F)cc3F)cc1CCO2, N#CC1CCN(C(=O)c2nc3c(s2)CCOc2cc(-c4cn[nH]c4)ccc2-3)CC1, CC(C)n1ncnc1-c1nc2c(s1)CCOc1ccc(-c3ccc[nH]c3=O)cc1-2, CC(=O)N1[C@H](C)CN(c2ccc3c(n2)-c2sc(-c4ncnn4-c4ccc(F)cc4F)cc2CCO3)C[C@@H]1C, CN(C(=O)c1nc2c(s1)CCOc1cc(-c3cn[nH]c3)ccc1-2)C1CCS(=O)(=O)C1 (stereo unspecified), CC(CO)Nc1ccc2c(n1)-c1sc(-c3ncnn3-c3ccc(F)cc3F)cc1CCO2 (stereo unspecified), COCC(O)CN1CC(c2ccc3c(c2)OCCc2sc(-c4nc(C)nn4C(C)C)nc2-3)C1 (stereo unspecified), CC(C)n1ncnc1-c1nc2c(s1)CCOc1cc(-c3ccc(=O)[nH]c3)ccc1-2, CC(C)N(CCO)C(=O)c1nc2c(s1)CCOc1cc(-c3cnn(C)c3)ccc1-2, O=C(c1nc2c(s1)CCOc1cc(-c3cn[nH]c3)ccc1-2)N1CCCNCC1, O=C(c1nc2c(s1)CCOc1cc(-c3cn[nH]c3)ccc1-2)N1CCNCC1, CC(C)n1ncnc1-c1cc2c(s1)-c1ccc(-c3cccc(S(C)(=O)=O)c3)cc1OCC2, COCCNCc1ccc2c(c1)OCCc1sc(-c3nncn3C(C)C)nc1-2, CC(C)n1ncnc1-c1nc2c(s1)CCOc1cc(C3CCN(CC(=O)N(C)C)CC3)ccc1-2, Cc1nc(-c2nc3c(s2)CCOc2cc(C4CN(CCF)C4)ccc2-3)n(C(C)C)n1, CC(C)(O)Cn1cc(-c2ccc3c(c2)OCCc2sc(-c4ncnn4CCN4CCOCC4)nc2-3)cn1, O=C(c1nc2c(s1)CCOc1cc(-c3cn[nH]c3)ccc1-2)N1CCCCC1, CN1CCN(c2ccc(-c3ccc4c(n3)-c3sc(-c5ncnn5-c5ccc(F)cc5F)cc3CCO4)cn2)CC1, CC(C)n1ncnc1-c1nc2c(s1)CCOc1cc(C3CN(S(=O)(=O)CCO)C3)ccc1-2, OCCn1cc(-c2ccc3c(c2)OCCc2sc(-c4ncnn4CC(F)(F)F)nc2-3)cn1, C[C@@H]1CCCN(C(=O)c2nc3c(s2)CCOc2cc(-c4cn[nH]c4)ccc2-3)C1, O=C(c1nc2c(s1)CCOc1cc(-c3cn[nH]c3)ccc1-2)N1CCC(c2ccc(F)cc2F)CC1, Cc1nc(-c2nc3c(s2)CCOc2cc([C@H]4CCCNC4)ccc2-3)n(C(C)C)n1, Cc1ccncc1-c1ccc2c(c1)-c1nc(C(=O)N(CCO)C(C)C)sc1CCO2, CC(C)CCN(C)C(=O)c1nc2c(s1)CCOc1cc(-c3cn[nH]c3)ccc1-2, CC(C)n1ncnc1-c1nc2c(s1)CCOc1ccc(C3CN(CCO)C3)cc1-2, CC(C)(O)Cn1cc(-c2ccc3c(c2)OCCc2sc(-c4nc(N)nn4-c4ccc(F)cc4F)nc2-3)cn1, CC(=O)N1CCC(N(CCO)C(=O)c2nc3c(s2)CCOc2cc(-c4cnn(CC(C)(C)O)c4)ccc2-3)CC1, CC(=O)NCCNc1ccc2c(n1)-c1sc(-c3ncnn3-c3ccc(F)cc3F)cc1CCO2, O=C(c1nc2c(s1)CCOc1cc(-c3cn[nH]c3)ccc1-2)N1CCC(C(=O)N2CCCC2)CC1, CC(C)n1ncnc1-c1nc2c(s1)CCOc1ccc(-c3cccn(CC(=O)N(C)C)c3=O)cc1-2, CC(C)n1nc(N)nc1-c1nc2c(s1)CCOc1cc(C(=O)NC3CN(C)C3)ccc1-2, O=C(c1nc2c(s1)CCOc1cc(-c3cn[nH]c3)ccc1-2)N1CCN(c2cnccn2)CC1, CC(C)N1CC(c2ccc3c(c2)OCCc2sc(-c4ncnn4C(C)C)nc2-3)C1, CC(C)N(CCO)C(=O)c1nc2c(s1)CCOc1cc(-c3cnc(N4CCN(C)CC4)nc3)ccc1-2, CC(C)n1ncnc1-c1nc2c(s1)CCOc1ccc(-c3cccn(CC(=O)O)c3=O)cc1-2, COCCN1CCN(C(=O)c2nc3c(s2)CCOc2cc(-c4cn[nH]c4)ccc2-3)CC1, CC(C)(O)Cn1cc(-c2ccc3c(c2)OCCc2sc(N4C(=O)NC(=O)C4(C)C)nc2-3)cn1, CC(=O)Nc1ccc(-c2ccc3c(n2)-c2sc(-c4ncnn4-c4ccc(F)cc4F)cc2CCO3)cn1, Fc1ccc(-n2ncnc2-c2cc3c(s2)-c2nc(-c4ccc(N5CCCC5)nc4)ccc2OCC3)c(F)c1
